Results taken from paper PMC4322365, “A Ligand-observed Mass Spectrometry Approach Integrated into the Fragment Based Lead Discovery Pipeline” (Scientific Reports, 2015).

Tests used:
[1] = target: T1, NS5B wild-type (Hepatitis C virus genotype 1b, UniProt P26663); assay: In-solution binding specificity, ligand-observed MS, wild-type NS5B; conditions: WT + 204; defined as 100%
T1 construct: NS5B with a C-terminal 10-His tag was expressed in E. coli; 10-His (C); made in house; host or cells: E. coli
Excerpt: To evaluate the binding specificity of fragment 204 to the palm domain of NS5B through interacting with certain residues indicated in the crystallographic data, we prepared two presumable binding-site mutants in the palm domain (C366A and M414T), and a control mutant in the thumb domain (M423T). […] Therefore, this experiment strongly implicated the finding by X-ray crystallography that fragment 204 binds to the palm domain of NS5B through interaction with Cys366 and Met414 was also valid in solution.
NS5B with a C-terminal 10-His tag was expressed in E. coli. Site-directed mutagenesis was performed using the Quick Site-directed mutagenesis kit according to the manufacturer's instructions (Stratagene, China). All constructs were verified by DNA sequencing. […]
In the primary screening, a mixture of 384 fragments (each at a final concentration of 25 μM) and NS5B at 50 μM was prepared in the binding buffer of 20 mM MES (pH 6.5), 300 mM NaCl and 10% glycerol, and incubated for 40 min at 25°C. […] The supernatant containing the ligands was evaporated by a speed vacuum, reconstituted in 80% methanol, and analyzed by LC/MS. […] Samples were all prepared in duplicate and analyzed separately.

[2] = target: T2, NS5B (Hepatitis C virus genotype 1b, UniProt P26663); assay: X-ray crystallography of fragments soaked into NS5B crystals; assay type: binding; conditions: fragments soaked at 5 mM
T2 construct: NS5B with a C-terminal 10-His tag was expressed in E. coli; 10-His (C); made in house; host or cells: E. coli
Excerpt: Similar to other nucleotide polymerases, the domain distribution of apo HCV NS5B polymerase bears an anatomical resemblance to a right hand with subdomains representing the fingers, thumb and palm[50][51]. Structural and mechanistic studies of NS5B have indicated the existence of multiple allosteric binding domains including palm I, II and III pockets and thumb I and II sites targeted by reported inhibitors. To characterize the binding modes of the fragments studied, they were soaked in NS5B crystals to obtain the protein complex X-ray structures. We were able to resolve electron density corresponding to the soaked compound for five out of ten fragments (crystallographic data summary in Table S4).
Moreover, the interaction could be enhanced by a π-π conjugate between its benzene ring and Tyr448 (Figure 3A). Fragment 204 engages deep in the palm I pocket through its trifluoromethyl moiety forming a hydrogen bond with Ser368 and van der Waals interaction with Cys366. Additionally, the hydrophobic interaction with Met414 as well as the π-π conjugate to Tyr448 may also contribute to the relatively high binding affinity of this fragment (Figure 3B). Fragment 117 binds at the pocket mainly through van der Waals interactions with Met414, Cys366 and Ser368 (Figure 3C), whereas fragment 328 forms van der Waals interactions with Tyr415 and Cys366 (Figure 3D). We assume these weak interactions may result in the lower binding strengths observed for the two fragments. Fragment 162 binds NS5B in a small cavity of the thumb pocket, with its trifluoromethyl moiety extending a key hydrogen bond with Asn369 as well as making hydrophobic interactions with Ser371 and Glu481. To our knowledge, the three residues constitute a new active domain in the thumb region never disclosed before.
The final optimized NS5B crystals were grown by the hanging drop method using a well solution of 30 mg/mL protein, 20% (w/v) PEG-4000, 10% (v/v) glycerol, 5 mM DTT and 50 mM MES (pH 5.5) and diffracted to 2 Å. Fragments were soaked onto the NS5B crystals at a final concentration of 5 mM (2.38% DMSO) for 2–3 days. Diffraction data were collected at Rigaku MicorMax 007HF X-ray diffraction instrument with an R-AXIS HTC detector (Rigaku), and processed using CCP4[60]. The NS5B structure was solved by molecular replacement using NS5B (1QUV) as the search model. The fragment-bound NS5B complex structures were determined by rigid-body refinement using the apo NS5B structure as a starting model. Structure improvement proceeded with multiple rounds of manual model building in Coot, followed by refinement using CCP4. Fragment ligands were fitted into clear Fo-Fc electron density at the late stage of refinement. Images were rendered from PyMOL.

Row | Compound | MS int. (%) [1] [%] | Binding site in crystal structure [2]
1 | O=C(O)c1ccc(C(F)(F)F)cc1 [Fragment 204] | 100.0 | palm I allosteric domain
2 | Nc1ccc(C(F)(F)F)cn1 [Fragment 162] |  | thumb region
3 | N#CC(c1ccccc1)N1CCOCC1 (stereo not drawn) [Fragment 328] |  | palm I allosteric domain
4 | N#CCc1ccc(O)cc1 [Fragment 114] |  | palm I allosteric domain
5 | Cc1ccc2oc(=O)ccc2c1 [Fragment 117] |  | palm I allosteric domain
